Results on 27 compounds are retold here after ChEMBL document CHEMBL5107956, “Natural products from mangrove sediments-derived microbes: Structural diversity, bioactivities, biosynthesis, and total synthesis” (Eur J Med Chem, 2022).

Series [1] has as its target Prostaglandin G/H synthase 2 (Homo sapiens) (UniProt P35354). Put plainly: Inhibition of COX2 (unknown origin) at 20 nM relative to control.
For series [2], the system named is P388. Put plainly: Cytotoxicity against mouse P388 cells assessed as cell growth inhibition measured after 72 hrs by MTT assay. The class given is functional, cell-based. As to conditions: Mus musculus, P388, 72 h.
Series [3] is described as follows: Antioxidant activity assessed as free radical scavenging activity incubated for 30 mins under dark condition by microplate reader analysis. The class given is functional.
Series [4] has as its system HL-60. Put plainly: Cytotoxicity against human HL-60 cells assessed as cell growth inhibition measured after 72 hrs by MTT assay. The class given is functional, cell-based. As to conditions: HL-60, 72 h. In general terms: Tetrazolium assays rely on reduction of a dye to a coloured formazan, in cell work by metabolically active cells.
Series [5] relates to A549. The series can be described thus: Cytotoxicity against human A549 cells assessed as cell growth inhibition measured after 72 hrs by MTT assay. The class given is functional, cell-based. As to conditions: A549, 72 h.
The subject of series [6] is SGC-7901. The series can be described thus: Cytotoxicity against human SGC-7901 cells assessed as cell growth inhibition measured after 48 hrs by MTT assay. The class given is functional, cell-based. As to conditions: SGC-7901, 48 h.
Series [7] can be described thus: Toxicity in brine shrimp assessed as induction of lethality. The settings on record: artemia salina; read-out: LD50 (the source's name).
Series [8] deals with HCT-116. Put plainly: Cytotoxicity against human HCT-116 cells assessed as cell growth inhibition incubated for 48 hrs by CCK-8 assay. Type of series: functional, cell-based. As to conditions: HCT-116, 48 h.
The test system of series [9] is A549. The series can be described thus: Cytotoxicity against human A549 cells assessed as cell growth inhibition incubated for 48 hrs by CCK-8 assay. The class given is functional, cell-based. The settings on record: A549, 48 h.
Series [10] is described as follows: Antiproliferative activity against human Pancreatic cancer cell assessed as cell growth inhibition measured after 24 hrs by CCK-8 assay. Type of series: functional, cell-based.
Series [11] has as its system SW-620. The series can be described thus: Cytotoxicity against human SW-620 cells assessed as cell growth inhibition by SRB assay. Type of series: functional, cell-based. For orientation: In SRB staining, fixed cells bind dye roughly in proportion to their protein.
The test system of series [12] is HCT-116. The series can be described thus: Cytotoxicity against human HCT-116 cells assessed as cell growth inhibition by SRB assay. Type of series: functional, cell-based.
The subject of series [13] is HL-60. The series can be described thus: Antiproliferative activity against human HL-60 cells assessed as cell growth inhibition measured after 72 hrs by CCK-8 assay. Type of series: functional, cell-based. As to conditions: HL-60, 72 h.
For series [14], the system named is OS-RC-2. Put plainly: Antiproliferative activity against human OS-RC-2 cells assessed as cell growth inhibition measured after 72 hrs by CCK-8 assay. The class given is functional, cell-based. The settings on record: OS-RC-2, 72 h.
Series [15] relates to Staphylococcus aureus. The series can be described thus: Antibacterial activity against Staphylococcus aureus ATCC 25923 assessed as bacterial growth inhibition. Type of series: functional, organism-based.
The nature of series [16]: Cytotoxicity against human HM02 cells assessed as cell growth inhibition. Type of series: functional.
Series [17] concerns HepG2. Put plainly: Cytotoxicity against human HepG2 cells assessed as cell growth inhibition. Type of series: functional.
For series [18], the system named is MCF7. Put plainly: Cytotoxicity against human MCF7 cells assessed as cell growth inhibition. Type of series: functional, cell-based.
The subject of series [19] is Candida albicans. Put plainly: Antifungal activity against Candida albicans assessed as fungal growth inhibition measured after 20 hrs. The class given is functional.
In series [20] the test system is A-375. Put plainly: Cytotoxicity against human A-375 cells assessed as cell growth inhibition by MTT assay. The class given is functional, cell-based.
Series [21] relates to HepG2. The series can be described thus: Cytotoxicity against human HepG2 cells assessed as cell growth inhibition by MTT assay. Type of series: functional, cell-based.
The test system of series [22] is A549. Put plainly: Cytotoxicity against human A549 cells assessed as cell growth inhibition by MTT assay. Type of series: functional, cell-based.
Series [23] relates to MCF7. Put plainly: Cytotoxicity against human MCF7 cells assessed as cell growth inhibition by MTT assay. The class given is functional, cell-based.
Series [24] concerns HL-60. The series can be described thus: Antiproliferative activity against human HL-60 cells assessed as cell growth inhibition by MTT assay. Type of series: functional, cell-based.
For series [25], the system named is A549. Put plainly: Antiproliferative activity against human A549 cells assessed as cell growth inhibition by MTT assay. The class given is functional, cell-based.
Series [26] is described as follows: Antioxidant activity assessed as free radical scavenging activity incubated for 30 mins by microplate reader analysis. Type of series: functional.
For series [27], the system named is HeLa. Put plainly: Cytotoxicity against human HeLa cells assessed as cell growth inhibition by MTT assay. Type of series: functional, cell-based.

In brackets after ≈: the same amount, converted by molar mass.

Prostaglandin G/H synthase 2 (Homo sapiens), sequence (P35354 whole entry, looked up): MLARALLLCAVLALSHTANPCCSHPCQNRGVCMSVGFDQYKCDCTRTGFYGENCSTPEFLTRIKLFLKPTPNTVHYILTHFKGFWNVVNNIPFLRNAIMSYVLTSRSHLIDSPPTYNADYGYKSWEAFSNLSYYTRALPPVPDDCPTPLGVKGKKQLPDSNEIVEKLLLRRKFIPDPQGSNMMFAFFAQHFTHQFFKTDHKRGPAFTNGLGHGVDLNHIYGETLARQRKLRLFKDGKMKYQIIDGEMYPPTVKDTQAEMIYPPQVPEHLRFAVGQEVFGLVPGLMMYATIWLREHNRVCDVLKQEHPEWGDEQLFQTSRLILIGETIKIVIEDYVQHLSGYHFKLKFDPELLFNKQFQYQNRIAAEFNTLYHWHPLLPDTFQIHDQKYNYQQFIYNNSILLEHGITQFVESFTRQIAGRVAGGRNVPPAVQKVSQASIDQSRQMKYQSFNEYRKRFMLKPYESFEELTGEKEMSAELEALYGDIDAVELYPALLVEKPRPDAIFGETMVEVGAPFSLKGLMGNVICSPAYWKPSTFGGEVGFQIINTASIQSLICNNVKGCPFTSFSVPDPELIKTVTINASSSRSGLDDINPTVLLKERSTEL

By inhibition is commonly meant the share of the control response that was lost under treatment. A lower inhibition goes with a weak effect. For `CCOC(=O)[C@]1(Cc2ccccc2)OC(=O)C(O)C1c1ccc(O)cc1` (stereo partly drawn), the inhibition in series [1] stood at 98.3%.

By IC50 is commonly meant the concentration that gives 50% inhibition. Regarding `C=CC(C)(C)c1[nH]c2ccccc2c1/C=C1\NC(=O)[C@]2(C[C@H](C)C=C[C@@H]2CCc2c(O)cc(CC=C(C)C)c(O)c2C=O)NC1=O` (stereo in doubt; 251), the IC50 in [2] was 3430 nM.

As to `C/C=C/C=C/CCc1c(O)ccc(O)c1COC`, the IC50 in [3] was found to be 17600 nM.

`CC1(C)C=Cc2c(ccc3c2[N+]([O-])=C2C3=C[C@@]34NC(=O)[C@]5(CCCN5C3=O)C[C@@H]4C2(C)C)O1`: the figures for the 50% inhibitory concentration (IC50) in series [4] and in series [5] were 3020 nM and 1920 nM, respectively.

As for `CC[C@H]1/C=C/C[C@H](CC(C)C)OC(=O)/C(C)=C\[C@@H]2C(=O)NC3=CC(=O)c4c(cc(C)c(O)c4C(=O)CC1)[C@@]32O`, in series [6], the IC50 was determined as 4700 nM.

With `CCCCC[C@@H]1Cc2cc(O)cc(O)c2C(=O)O1`, in series [7], the LC50 was 36.4 µg/mL (≈ 145 µM).

Turning to `C[C@@H]1O[C@@H](Oc2ccc(-c3cc(=O)c4ccc(O[C@H]5C[C@H](O)[C@H](O)[C@H](C)O5)cc4o3)cc2)C[C@H](O)[C@@H]1O`, the IC50 in series [8] and in series [9] was 13.5 µg/mL (≈ 26.2 µM) throughout.

Turning to `CC[C@H]1[C@@H]2C=C[C@@H]3[C@H]4C/C=C\C(=O)NCCC[C@H]5NC(=O)C(=C5O)C(=O)/C=C/[C@@H]4C[C@@H]3[C@H]2C[C@H]1C`, the IC50 in series [10] was found to be 1300 nM.

With `COc1cc(C)c2c(O)c3c(cc2c1)[C@@H](O)CCC3=O`, the IC50 in series [11] and in series [12] was 630 nM in each case.

Consider `COc1nc(C/C=C(\C)C/C=C/C(C)=C/[C@@H](C)/C=C/[C@@H](C)OC)c(C)c(O)c1OC`, for which, in series [13], the IC50 is under 100 nM.

For the compound `C=C(C(C)=O)[C@H](O)[C@H](C)/C=C(C)/C=C/C/C(C)=C/Cc1nc(OC)c(OC)c(O)c1C`, the IC50 in series [14] came to 2200 nM.

In the case of `O=C1OC(Cc2ccc(O)cc2)C(c2ccc(O)cc2)C1O` (stereo not drawn), the IC50 in [15] came to 17400 nM.

By GI50 is commonly meant the concentration giving 50% growth inhibition. Take `CC[C@H](C)CCC[C@H]1CCCCC(=O)O1`: the GI50 in series [16], in series [17] and in [18] was 0.11 µg/mL (≈ 0.518 µM) throughout.

A word on the MIC: it is the lowest concentration that inhibits growth of the organism. For the compound `CCCCC[C@H]1C(=O)O[C@H](C)[C@H](NC(=O)c2cccc(NC=O)c2O)C(=O)O[C@@H](C)[C@@H]1OC(=O)[C@@H](C)C(C)C`, in series [19], the MIC stood at 5 µg/mL (≈ 9.11 µM).

As to `COc1ccc(C[C@@H]2NC(=O)[C@@]34OC(=O)O/C=C/[C@@](C)(O)C(=O)[C@@H](C)C/C=C/[C@H]3C(O)C(C)=C(C)[C@@H]24)cc1` (stereo partly drawn), the IC50 in series [20], in series [21], in series [22] and in series [23] was 470 nM in each case.

For the compound `CC1(C)C=Cc2c(ccc3c4c(n(O)c23)C(C)(C)[C@H]2C[C@]35CCCN3C(=O)[C@@]2(C4)NC5=O)O1`, the IC50 came out at 4450 nM in series [4] and 1880 nM in [5].

Regarding `C=C1C(O)[C@@H]2/C=C/C[C@H](C)C(=O)[C@](C)(O)/C=C/OC(=O)O[C@]23C(=O)N[C@@H](Cc2ccc(OC)cc2)[C@@H]3[C@@H]1C` (stereo partly drawn), the IC50 in series [20], in series [21], in series [22] and in series [23] was 470 nM each time.

Turning to `COC1=C(CO)O[C@@H]2C[C@@]1(OC)n1c3ccccc3c3c4c(c5c6ccccc6n2c5c31)C(=O)NC4`, the IC50 in series [24] turned out to be 1400 nM; in series [25], 5000 nM.

For the compound `CC[C@H]1/C=C/C[C@H](CC(C)C)OC(=O)/C(C)=C\[C@H]2C(=O)NC3=CC(=O)c4c(cc(C)c(O)c4C(=O)CC1)[C@@]32O`, the IC50 in [6] stood at 2800 nM.

Consider `CCOC(=O)[C@]1(Cc2ccc(O)c(CC3OC3(C)C)c2)OC(=O)C(O)C1c1ccc(O)cc1` (stereo partly drawn), for which the IC50 in series [15] is 21300 nM.

Regarding `CC(C)CCC[C@H]1CCCCC(=O)O1`, the GI50 in [16], in [17] and in series [18] was 0.11 µg/mL (≈ 0.555 µM) each time.

Turning to `Cc1cccc2cc3c(c(O)c12)C(=O)CC[C@@H]3O`, the IC50 in series [11] and in series [12] was 630 nM each time.

Regarding `CCCCC[C@@H]1Cc2cc(O)c(C)c(O)c2C(=O)O1`, in series [7], the LC50 worked out at 7.7 µg/mL (≈ 29.1 µM).

Take `CC(C)=CCc1cc(C[C@@]2(CC=C(C)C)OC(=O)C(O)C2c2ccccc2)ccc1O` (stereo partly drawn): the inhibition in [1] came out at 66.3%.

As for `O=C(O)CCCNC(=O)c1ccc(O)c(O)c1`, in series [26], the IC50 was 4700 nM.

In the case of `COc1nc(C/C=C(\C)C/C=C/C(C)=C/[C@@H](C)/C=C(\C)[C@H](C)O)c(C)c(O)c1OC`, the IC50 in series [13] is under 100 nM.

Take `CCC(=O)OCc1c(OCC=C(C)C)c(C)cc(OC)c1C(=O)c1c(O)ccc2c1OC(C)(C)C=C2`: in series [27], the concentration for half-maximal inhibition (IC50) came to 9200 nM.
